Key:
Type in all cases: cell-based, mouse
[1] = tested on: β-galactosidase in CMV-LacZ C2C12 myoblasts; assay: CMV-LacZ secondary screen in C2C12 myoblasts (β-Gal stabilizing assay); conditions: for CMV-LACZ in Myoblasts (β-galactosidase activity relative to DMSO): CMV-LacZ C2C12 myoblasts; for CMV-LACZ in Myoblasts, value relative to DMSO: SU9516 analogs, C2C12 CMV-LacZ, N=2
Method in brief: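 Stable CMV-LacZ C2C12 clone; six-point curve 0.5–40 μM; duplicates.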

[2] = tested on: α7 integrin (LacZ reporter in α7+/LacZ myotubes); assay: Myotube α7 integrin FDG assay (Burkin assay in myotubes, 96-well); conditions: for Burkin Assay in Myotubes, value relative to DMSO: SU9516 analogs, 96-well, N=3-6
[3] = tested on: β-galactosidase in CMV-LacZ C2C12 myotubes; assay: CMV-LacZ secondary screen in C2C12 myotubes (β-Gal stabilizing assay); conditions: for CMV-LACZ in Myotubes, signal relative to DMSO: C2C12 CMV-LacZ myotubes, fold relative to DMSO; for CMV-LACZ in Myotubes, value relative to DMSO: SU9516 analogs, C2C12 CMV-LacZ, N=2
Method in brief: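 β-Gal level was the read-out, measured in a clonal C2C12 line expressing LacZ from a CMV promoter. Dose-response curves used six concentrations, 0.5 μM up to 40 μM, with duplicate points.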

[4] = tested on: α7 integrin (LacZ reporter in α7βgal+/− myoblasts); assay: Myoblast α7+/LacZ integrin FDG assay (Burkin assay in myoblasts, 96-well); conditions: 96-well; for Burkin Assay in Myoblasts, signal relative to DMSO: α7+/LacZ myoblasts; for Burkin Assay in Myoblasts, value relative to DMSO: SU9516 analogs, N=3-6

## CC(=O)Nc1ccc(NC(=O)c2cc(=O)c3cc(C)cc(C)c3o2)cc1 [MLS001200396-01]
[1]; 0.5 uM
  CMV-LACZ in Myoblasts (β-galactosidase activity relative to DMSO): 1.0489
[1]; 1 uM
  CMV-LACZ in Myoblasts (β-galactosidase activity relative to DMSO): 0.9157
[1]; 5 uM
  CMV-LACZ in Myoblasts (β-galactosidase activity relative to DMSO): 1.0212
[1]; 10 uM
  CMV-LACZ in Myoblasts (β-galactosidase activity relative to DMSO): 1.2107
[1]; 20 uM
  CMV-LACZ in Myoblasts (β-galactosidase activity relative to DMSO): 0.7252
[1]; 40 uM
  CMV-LACZ in Myoblasts (β-galactosidase activity relative to DMSO): 0.9011
[2]; 0.5 uM
  Burkin Assay in Myotubes, α7 integrin LacZ reporter signal relative to DMSO: 0.9301
[2]; 1 uM
  Burkin Assay in Myotubes, α7 integrin LacZ reporter signal relative to DMSO: 0.9487
[2]; 5 uM
  Burkin Assay in Myotubes, α7 integrin LacZ reporter signal relative to DMSO: 0.9829
[2]; 10 uM
  Burkin Assay in Myotubes, α7 integrin LacZ reporter signal relative to DMSO: 1.264
[2]; 20 uM
  Burkin Assay in Myotubes, α7 integrin LacZ reporter signal relative to DMSO: 0.6408
[2]; 40 uM
  Burkin Assay in Myotubes, α7 integrin LacZ reporter signal relative to DMSO: 0.7114
[3]; 0.5 uM
  CMV-LACZ in Myotubes, signal relative to DMSO: 0.9137
[3]; 1 uM
  CMV-LACZ in Myotubes, signal relative to DMSO: 0.8442
[3]; 5 uM
  CMV-LACZ in Myotubes, signal relative to DMSO: 0.8987
[3]; 10 uM
  CMV-LACZ in Myotubes, signal relative to DMSO: 0.7738
[3]; 20 uM
  CMV-LACZ in Myotubes, signal relative to DMSO: 0.9644
[3]; 40 uM
  CMV-LACZ in Myotubes, signal relative to DMSO: 0.9733
[4]; 0.5 uM
  Burkin Assay in Myoblasts, signal relative to DMSO: 0.8827
[4]; 1 uM
  Burkin Assay in Myoblasts, signal relative to DMSO: 0.9245
[4]; 5 uM
  Burkin Assay in Myoblasts, signal relative to DMSO: 0.5378
[4]; 10 uM
  Burkin Assay in Myoblasts, signal relative to DMSO: 1.1321
[4]; 20 uM
  Burkin Assay in Myoblasts, signal relative to DMSO: 0.4827
[4]; 40 uM
  Burkin Assay in Myoblasts, signal relative to DMSO: 0.4794

## O=Nc1c(-c2c(O)[nH]c3ccccc23)[nH]c2ccccc12 [NCGC00015545-02]
[1]; 0.5 uM
  CMV-LACZ in Myoblasts, value relative to DMSO: 1.0179
[1]; 5 uM
  CMV-LACZ in Myoblasts, value relative to DMSO: 0.9440
[1]; 10 uM
  CMV-LACZ in Myoblasts, value relative to DMSO: 0.8475
[1]; 20 uM
  CMV-LACZ in Myoblasts, value relative to DMSO: 0.2907
[1]; 40 uM
  CMV-LACZ in Myoblasts, value relative to DMSO: 0.2480
[2]; 0.5 uM
  Burkin Assay in Myotubes, value relative to DMSO: 0.913
[2]; 1 uM
  Burkin Assay in Myotubes, value relative to DMSO: 0.9118
[2]; 5 uM
  Burkin Assay in Myotubes, value relative to DMSO: 0.6921
[2]; 10 uM
  Burkin Assay in Myotubes, value relative to DMSO: 0.5516
[2]; 20 uM
  Burkin Assay in Myotubes, value relative to DMSO: 0.4959
[2]; 40 uM
  Burkin Assay in Myotubes, value relative to DMSO: 0.3519
[3]; 0.5 uM
  CMV-LACZ in Myotubes, value relative to DMSO: 0.8627
[3]; 1 uM
  CMV-LACZ in Myotubes, value relative to DMSO: 0.9536
[3]; 5 uM
  CMV-LACZ in Myotubes, value relative to DMSO: 0.7586
[3]; 10 uM
  CMV-LACZ in Myotubes, value relative to DMSO: 0.5058
[3]; 20 uM
  CMV-LACZ in Myotubes, value relative to DMSO: 0.5490
[3]; 40 uM
  CMV-LACZ in Myotubes, value relative to DMSO: 0.4770
[4]; 0.5 uM
  Burkin Assay in Myoblasts, value relative to DMSO: 1.175
[4]; 1 uM
  Burkin Assay in Myoblasts, value relative to DMSO: 1.325
[4]; 5 uM
  Burkin Assay in Myoblasts, value relative to DMSO: 0.596
[4]; 10 uM
  Burkin Assay in Myoblasts, value relative to DMSO: 0.319
[4]; 20 uM
  Burkin Assay in Myoblasts, value relative to DMSO: 0.3086
[4]; 40 uM
  Burkin Assay in Myoblasts, value relative to DMSO: 0.1824

## COc1ccccc1CC(=O)Nc1cc(S(=O)(=O)N2CCOCC2)ccc1N1CCOCC1 [MLS002170630-01]
[1]; 0.5 uM
  CMV-LACZ in Myoblasts (β-galactosidase activity relative to DMSO): 0.9954
[1]; 1 uM
  CMV-LACZ in Myoblasts (β-galactosidase activity relative to DMSO): 0.8054
[1]; 5 uM
  CMV-LACZ in Myoblasts (β-galactosidase activity relative to DMSO): 0.9890
[1]; 10 uM
  CMV-LACZ in Myoblasts (β-galactosidase activity relative to DMSO): 0.9628
[1]; 20 uM
  CMV-LACZ in Myoblasts (β-galactosidase activity relative to DMSO): 0.8233
[1]; 40 uM
  CMV-LACZ in Myoblasts (β-galactosidase activity relative to DMSO): 0.7387
[2]; 0.5 uM
  Burkin Assay in Myotubes, α7 integrin LacZ reporter signal relative to DMSO: 1.03
[2]; 1 uM
  Burkin Assay in Myotubes, α7 integrin LacZ reporter signal relative to DMSO: 1.075
[2]; 5 uM
  Burkin Assay in Myotubes, α7 integrin LacZ reporter signal relative to DMSO: 0.9697
[2]; 10 uM
  Burkin Assay in Myotubes, α7 integrin LacZ reporter signal relative to DMSO: 1.123
[2]; 20 uM
  Burkin Assay in Myotubes, α7 integrin LacZ reporter signal relative to DMSO: 0.8857
[2]; 40 uM
  Burkin Assay in Myotubes, α7 integrin LacZ reporter signal relative to DMSO: 1.0714
[3]; 0.5 uM
  CMV-LACZ in Myotubes, signal relative to DMSO: 0.8136
[3]; 1 uM
  CMV-LACZ in Myotubes, signal relative to DMSO: 1.0036
[3]; 5 uM
  CMV-LACZ in Myotubes, signal relative to DMSO: 1.2068
[3]; 10 uM
  CMV-LACZ in Myotubes, signal relative to DMSO: 0.9248
[3]; 20 uM
  CMV-LACZ in Myotubes, signal relative to DMSO: 0.9710
[3]; 40 uM
  CMV-LACZ in Myotubes, signal relative to DMSO: 0.8580
[4]; 0.5 uM
  Burkin Assay in Myoblasts, signal relative to DMSO: 1.122
[4]; 1 uM
  Burkin Assay in Myoblasts, signal relative to DMSO: 0.9708
[4]; 5 uM
  Burkin Assay in Myoblasts, signal relative to DMSO: 1.0982
[4]; 10 uM
  Burkin Assay in Myoblasts, signal relative to DMSO: 1.216
[4]; 20 uM
  Burkin Assay in Myoblasts, signal relative to DMSO: 0.7825
[4]; 40 uM
  Burkin Assay in Myoblasts, signal relative to DMSO: 0.6735
